Results published in PMC8110993, “Structure and antimicrobial activity of NCR169, a nodule-specific cysteine-rich peptide of Medicago truncatula” (Scientific Reports, 2021).
Where two headings read alike, the source gives them in different places. Where a SMILES comes first, the peptide text is derived from it. Bridges are numbered along the chain shown (N, C = ends).

Legend:
[1] = format: physicochemical
Procedure: (§1) To confirm it, we examined the solubility of NCR169 in various solvents, HEPES (salt-free), HEPES with salt (50 to 200 mM NaCl or KCl), and PBS. […] In other words, the disulfide bonds of NCR169 contribute to its solubility.
Supplementary Figure S3. Solubility assessment of NCR169. The same amount of NCR169 was dissolved in various solvents. After incubation at room temperature for 1 h, the solution was centrifuged at 20,000 × g and the supernatant was analyzed by Tricine-SDS-PAGE. […]

[2] = HPLC retention time as measure of surface hydrophobicity; format: physicochemical; details: C18 column, linear gradient 30 to 45% acetonitrile, 220 nm; compared with NCR169 oxidized forms
Procedure: Figure 1 Sample preparation of NCR169 peptides. (A) High-performance liquid chromatography (HPLC) analyses of NCR169 peptides. Purified NCR169-ox1, NCR-ox2, NCR169-red, and reoxidized NCR169-red (NCR-red + GSSG) were analyzed by HPLC with a linear gradient of 30 to 45% acetonitrile and monitored at 220 nm. (B) MALDI-TOF–MS spectra of HPLC-purified NCR169-ox1 (upper), NCR169-ox2 (middle), and NCR169-red (lower). (C) Amino acid sequences of NCR169 peptides used in this study. The cysteine numbers (C1 to C4) are indicated in red on the sequence. The experimentally determined disulfide linkage patterns are indicated by connecting lines on the sequences. The first N-terminal residue, G (underlined), is the extra residue remaining after tag cleavage.
as §1
To prepare the reduced peptide (NCR169-red), NCR169-ox was reduced with 10 mM tris(2-carboxyethyl)phosphine (TCEP) at pH 10.5, followed by acidification using trifluoroacetate (TFA) and HPLC purification with a C18 column and 30–45% ACN gradient. The fractions were collected and dried under vacuum conditions. The purified peptides were confirmed using MALDI-TOF–MS.

[3] = Liposome sedimentation (binding) assay; details: peptide 20 μM, 2 mM DMPC liposomes, 20 mM HEPES, 150 mM NaCl, pH 7.0, 30 min room temperature, 200,000×g, supernatant and pellet by Tricine-SDS-PAGE
Procedure: (§2) Figure 3 NCR169 binds to the bacterial phospholipid. (A) Circular dichroism (CD) spectra of NCR169 peptides (NCR169-ox1 and -ox2). NCR169 peptides (20 μM) were dissolved in the following solvents: water (No additives), 2 mM DMPC liposomes, 2 mM DMPG liposomes or 30% 2,2,2-trifluoroethanol (TFE). (B) The results of liposome binding assays. The NCR169 peptide (20 μM) was incubated with buffer (No lipid), 2 mM DMPC liposomes, or 2 mM DMPG liposomes. After incubation at room temperature for 30 min, the mixture was ultra-centrifuged at 200,000×g. The supernatant and pellet fractions were analyzed by Tricine-SDS-PAGE. The no lipid sample before ultra-centrifugation was used as the input.
(§3) The phospholipids DMPC and DMPG were purchased from Avanti Polar Lipids (Alabaster, AL, USA). An appropriate amount of phospholipid was dissolved in chloroform and dried under vacuum for 1 h. The lipid film was suspended in water, vortexed, and sonicated for 30 min to form the liposomes.
The assay was carried out as described previously. Briefly, equal volumes of NCR169 peptide (20 μM) and liposomes (2 mM) were mixed in assay buffer (20 mM HEPES, 150 mM NaCl, pH 7.0) and incubated for 30 min at room temperature, followed by ultracentrifugation at 200,000×g for 15 min at 20 °C. […] The supernatant and pellet fractions were subjected to Tricine-SDS-PAGE, and peptides were detected by Coomassie Brilliant Blue staining.

[4] = Liposome sedimentation (binding) assay; details: peptide 20 μM, 2 mM DMPG liposomes, 20 mM HEPES, 150 mM NaCl, pH 7.0, 30 min room temperature, 200,000×g, supernatant and pellet by Tricine-SDS-PAGE
Procedure: as §2, §3
The assay was carried out as described previously. Briefly, equal volumes of NCR169 peptide (20 μM) and liposomes (2 mM) were mixed in assay buffer (20 mM HEPES, 150 mM NaCl, pH 7.0) and incubated for 30 min at room temperature, followed by ultracentrifugation at 200,000×g for 15 min at 20 °C. After centrifugation, the supernatant was collected, and the pellet was dissolved in the same volume of assay buffer containing 0.2% Triton X-100. The supernatant and pellet fractions were subjected to Tricine-SDS-PAGE, and peptides were detected by Coomassie Brilliant Blue staining.
Supplementary Figure S11. NCR 169 M binds to the bacterial phospholipid. (A) Circular dichroism (CD) spectra of NCR169M (20 μM) in water (No additive), 2 mM dimyristoylphosphatidylcholine (DMPC) liposomes, 2 mM dimyristoylphosphatidylglycerol (DMPG) liposomes or 30% 2,2,2-trifluoroethanol (TFE). (B) The result of liposome binding assay. NCR169M (20 μM) was incubated with buffer (No lipid),2 mM DMPC liposomes, or 2 mM DMPG liposomes . After incubation at room temperature for 30 min, the mixture was ultra-centrifuged at 200,000 × g. The supernatant and pellet fractions were analyzed by Tricine-SDS-PAGE. The no lipidsample before ultra-centrifugation was used as the input.
(also on this page, place not known: [θ] (103 deg cm2 dmol-1) markerkDa input No lipid sup ppt sup ppt sup ppt NCR169M lipid), DMPC 2 DMPG liposomes. lipid sample)
(1 picture or pasted object on this page, not shown here)
Supplementary Figure S12. The results of liposome binding assays. (A) NCR169-derived peptide (10 μM) was incubated with buffer (No lipid), 1 mM DMPC liposomes, 1 mM DMPG liposomes. After incubation at room temperature for 30 min, the mixture was ultra-centrifuged at 200,000 × g. The supernatant and pellet fractions were analyzed by Tricine-SDS-PAGE. The no lipid sample before ultra-centrifugation was used as the input. Arrows indicate weak bands. (B) […]

[5] = format: physicochemical; details: pH 2.2
Procedure: We further measured the circular dichroism (CD) spectra of NCR169-ox1 and -ox2 under various pH conditions to confirm their structural stability against pH (Supplementary Fig. S4). […] Because acidic pH is preferable for amide proton detection in NMR experiments, we performed the following solution NMR study at lower pH.
CD spectra were recorded within a wavelength range of 270–195 nm using a JASCO J-820 spectropolarimeter (JASCO International Co., Ltd., Tokyo, Japan). A quartz cell with a light path length of 1 mm was used for the measurements. The sample temperature was maintained at 25 °C during the measurements.
Supplementary Figure S4. Circular dichroism (CD) spectra of NCR169-ox1 and -ox2 under
various pH conditions. The signal reflectingβ-sheet structure (218 nm) was hardly changed.

Escherichia coli K-12 = format: cell-based
Procedure: (§4) Antimicrobial tests were performed using the drop plate method[12],[47]. Bacterial strains in the logarithmic phase (OD600 = 0.5–0.8) were diluted with 5 mM HEPES–KOH (pH 7.0) to a bacterial culture value of 1 × 10^6 CFU/mL. At OD600 = 0.1, the concentrations of S. meliloti and E. coli K-12 cells were 6.4 × 10^6 CFU/mL and 5.2 × 10^7 CFU/mL, respectively. Equal volumes of bacteria (S. meliloti or E. coli K-12) and NCR169 peptide or PMB were mixed and incubated at room temperature for 2 h. For antimicrobial tests against S. meliloti, 10 μL of each serially diluted mixture was spotted on MHB plates with 2.5 mM MgCl2, and 2.5 mM CaCl2, followed by incubation at 30 °C for 40 h. For antimicrobial tests against E. coli K-12, 10 μL of each mixture was spotted on Mueller Hinton Broth (MHB; MilliporeSigma, Burlington, MA, USA) plates followed by incubation at 30 °C for 13 h.
(§5) To estimate survival rate, the peptide-treated bacterial mixtures were serially diluted with the buffer before spotting on the plate. Bacterial survival rates were calculated using the colony numbers of each bacterial strain with or without peptide treatment. All experiments were repeated at least four times.
(§6) Supplementary Table S2. Antimicrobial activities of NCR169 peptides against E. coliK-12 and S. meliloti.
(§7) Peptide IC50 (μM)* IC100 (μM)
(§8) E. coli K-12 S. meliloti E. coli K-12 S. meliloti
(§9) IC50: 50% inhibitory concentration (Calculated using “Dose-response curve” fitting)

Sinorhizobium meliloti = format: cell-based
Procedure: as §4, §5, §6, §7, §8, §9

Structure (SMILES): CC[C@H](C)[C@H](NC(=O)CNC(=O)[C@H](CS)NC(=O)[C@H](Cc1ccc(O)cc1)NC(=O)[C@H](CCCCN)NC(=O)[C@@H](NC(=O)[C@H](Cc1c[nH]cn1)NC(=O)CNC(=O)[C@@H](NC(=O)[C@H](CC(=O)O)NC(=O)[C@H](CCC(=O)O)NC(=O)CN)[C@@H](C)CC)[C@@H](C)CC)C(=O)N[C@H](C(=O)N[C@@H](CC(=O)O)C(=O)N[C@@H](CC(=O)O)C(=O)N[C@@H](CS)C(=O)N[C@@H](Cc1ccc(O)cc1)C(=O)N[C@@H](CCCCN)C(=O)N[C@@H](CO)C(=O)N[C@@H](CCCCN)C(=O)N[C@@H](CCCCN)C(=O)N1CCC[C@H]1C(=O)N[C@@H](CC(C)C)C(=O)N[C@@H](Cc1ccccc1)C(=O)N[C@@H](CCCCN)C(=O)N[C@H](C(=O)N[C@@H](Cc1c[nH]c2ccccc12)C(=O)N[C@@H](CCCCN)C(=O)N[C@@H](CS)C(=O)N[C@H](C(=O)N[C@@H](CCC(=O)O)C(=O)N[C@@H](CC(N)=O)C(=O)N[C@H](C(=O)N[C@@H](CS)C(=O)N[C@H](C(=O)N[C@@H](CC(C)C)C(=O)N[C@@H](Cc1c[nH]c2ccccc12)C(=O)N[C@@H](Cc1ccc(O)cc1)C(=O)N[C@@H](CCCCN)C(=O)O)C(C)C)C(C)C)C(C)C)[C@@H](C)CC)C(C)C [NCR169-red] (H-GEDIGHIKYCGIVDDCYKSKKPLFKIWKCVENVCVLWYK-OH)
- Solubility in various solvents ([1]; 20 mM HEPES pH 7.0 salt-free, or with 50 to 200 mM NaCl or KCl, and PBS pH 7.4, 1 h room temperature, centrifuged 20,000 × g, supernatant by Tricine-SDS-PAGE): insoluble in all conditions except the salt-free buffer
- HPLC retention time (hydrophobicity of molecular surface) [2]: longer than that of the NCR169 oxidized forms

Structure (SMILES): CC[C@H](C)[C@@H]1NC(=O)CNC(=O)[C@@H](NC(=O)[C@H](Cc2ccc(O)cc2)NC(=O)[C@H](CCCCN)NC(=O)[C@@H](NC(=O)[C@H](Cc2c[nH]cn2)NC(=O)CNC(=O)[C@@H](NC(=O)[C@H](CC(=O)O)NC(=O)[C@H](CCC(=O)O)NC(=O)CN)[C@@H](C)CC)[C@@H](C)CC)CSSC[C@@H](C(=O)N[C@@H](Cc2ccc(O)cc2)C(=O)N[C@@H](CCCCN)C(=O)N[C@@H](CO)C(=O)N[C@@H](CCCCN)C(=O)N[C@@H](CCCCN)C(=O)N2CCC[C@H]2C(=O)N[C@@H](CC(C)C)C(=O)N[C@@H](Cc2ccccc2)C(=O)N[C@@H](CCCCN)C(=O)N[C@H](C(=O)N[C@@H](Cc2c[nH]c3ccccc23)C(=O)N[C@@H](CCCCN)C(=O)N[C@H]2CSSC[C@@H](C(=O)N[C@H](C(=O)N[C@@H](CC(C)C)C(=O)N[C@@H](Cc3c[nH]c4ccccc34)C(=O)N[C@@H](Cc3ccc(O)cc3)C(=O)N[C@@H](CCCCN)C(=O)O)C(C)C)NC(=O)[C@H](C(C)C)NC(=O)[C@H](CC(N)=O)NC(=O)[C@H](CCC(=O)O)NC(=O)[C@H](C(C)C)NC2=O)[C@@H](C)CC)NC(=O)[C@H](CC(=O)O)NC(=O)[C@H](CC(=O)O)NC(=O)[C@H](C(C)C)NC1=O [NCR169-ox1] (H-GEDIGHIKYCGIVDDCYKSKKPLFKIWKCVENVCVLWYK-OH; disulfide 10-16, 29-34)
- Binding to DMPC liposomes [3]: Neither NCR169-ox1 nor -ox2 bound
- Binding to DMPG liposomes [4]: bound to the DMPG liposomes
- Solubility in various solvents [1]: soluble in all conditions
- Structural stability against pH (CD spectra) [5]: retained their conformations under acidic and neutral conditions
- IC100 (Escherichia coli K-12; E. coli K-12, drop plate method, 2 h treatment at room temperature, 5 mM HEPES-KOH pH 7.0): 16 µM
- IC50 (Escherichia coli K-12; K-12, 2 h, pH 7): 0.41 µM
- IC50 (Sinorhizobium meliloti; 2 h, pH 7): 6.4 µM
- IC100 (Sinorhizobium meliloti; S. meliloti, drop plate method, 2 h treatment at room temperature, 5 mM HEPES-KOH pH 7.0): 128 µM
